How the values were obtained:
[1] = tested on: H1975 (EGFR T790M/L858R) cell proliferation; assay: H1975 proliferation assay (Cell Titer-Glo); assay type: cell-based; settings: Homo sapiens, NCI-H1975, 72 h, NCI-H1975 cells, 72 hour incubation, read-out: H1975 antiproliferative EC50
Experimental: H1975 Proliferation Assays
All cell culture reagents were purchased from Invitrogen/Gibco. Cells are cultured at 37° C. at 5% CO2 and split as recommended by ATCC.

EGFR T790M L858R = target: T1, EGFR T790M L858R (Homo sapiens, UniProt P00533, L858R/T790M); assay: EGFR T790M L858R biochemical assay (Caliper mobility shift); settings: 5 μM ATP; apparent Ki (Morrison fit) converted by Cheng-Prusoff, Km of ATP 1.3 μM
T1 construct: purchased Life Technologies PV4879
Experimental: The exemplified compounds described herein were tested according to the assay below. The enzyme data reported in Tables 4-5 is generally a representative of multiple experiments.
Reactions proceed for 30 minutes at room temperature (22° C.) and are terminated with 80 mM 2,2′,2″,2′″-(ethane-1,2-diyldinitrilo)tetraacetic acid (EDTA). Product is detected using the Caliper mobility shift detection method where product and substrate are electrophoretically separated and measured.

[2] = target: T2, phosphor-EGFR in H1975(L585R/T790M) mutant EGFR expressing cells (Homo sapiens, UniProt P00533, L858R/T790M); assay: H1975 pEGFR MSD cellular assay; assay type: cell-based; settings: NCI-H1975 cells, serum starved, 1 hour compound incubation, pEGFR Tyr1068 MSD; read-out: HI975 pEGFR EC50
T2 construct: host or cells: NCI-H1975
Experimental: H1975 pEGFR MSD Cellular Assays
These assays are intended for determining cellular. […] (Meso Scale Discovery Catalog# N31CB-1).
NCI-H1975 (ATCC Catalog# CRL-5908) cells are maintained in medium containing RPMI 1640, 10% FBS, 4 mM L-Glutamine, 1% Penicillin-Streptomycin, and 4.5 g/L Glucose. All cell culture reagents were purchased from Invitrogen/Gibco. Cells are cultured at 37° C. at 5% CO2 and split as recommended by ATCC.
Cell Plating and Serum Starvation:
H1975 cells are harvested and plated into sterile cell culture treated 384 well plates (Greiner catalog #781091) at a density of 30,000 cells/well in 50 ul culture medium and placed in a 37° C. at 5% CO2 incubator for six hours. After six hours, culture medium is aspirated and replaced with serum-free culture medium. Cells are then incubated with the serum-free medium overnight at 37° C. and 5% CO2.
The following day, test compounds are serially diluted in dimethyl sulfoxide (DMSO) and added to cells in serum free medium (final DMSO concentration 0.5%). Assay plates are then incubated for 1 hour at 37° C. and 5% CO2. Following 1 hour of compound incubation cells are then lysed and processed as per the MSD pEGFR assay kit protocol. Cell lysates are added to assay plates pre-coated with antibodies against phosphorylated EGFR. Phosphorylated EGFR in samples are allowed to bind to the capture antibodies overnight at 4° C. The detection antibody (anti-total EGFR, labeled with an electrochemiluminescent SULFO-TAG) is added to the bound lysate and incubated for 1 hour at room temperature. The MSD Read Buffer is added such that when a voltage is applied to the plate electrodes, the labels bound to the electrode surface emit light. The MSD Sector Instrument measures the intensity of the light, and quantitatively measures the amount of phosphorylated-EGFR in the sample. Percent inhibition of EGFR phosphorylation by varying concentrations of test compounds is calculated relative to untreated controls. EC50 values are calculated using the 4 parameter logistic nonlinear regression dose-response model.

T2 sequence (P00533 25-1210 T790M/L858R): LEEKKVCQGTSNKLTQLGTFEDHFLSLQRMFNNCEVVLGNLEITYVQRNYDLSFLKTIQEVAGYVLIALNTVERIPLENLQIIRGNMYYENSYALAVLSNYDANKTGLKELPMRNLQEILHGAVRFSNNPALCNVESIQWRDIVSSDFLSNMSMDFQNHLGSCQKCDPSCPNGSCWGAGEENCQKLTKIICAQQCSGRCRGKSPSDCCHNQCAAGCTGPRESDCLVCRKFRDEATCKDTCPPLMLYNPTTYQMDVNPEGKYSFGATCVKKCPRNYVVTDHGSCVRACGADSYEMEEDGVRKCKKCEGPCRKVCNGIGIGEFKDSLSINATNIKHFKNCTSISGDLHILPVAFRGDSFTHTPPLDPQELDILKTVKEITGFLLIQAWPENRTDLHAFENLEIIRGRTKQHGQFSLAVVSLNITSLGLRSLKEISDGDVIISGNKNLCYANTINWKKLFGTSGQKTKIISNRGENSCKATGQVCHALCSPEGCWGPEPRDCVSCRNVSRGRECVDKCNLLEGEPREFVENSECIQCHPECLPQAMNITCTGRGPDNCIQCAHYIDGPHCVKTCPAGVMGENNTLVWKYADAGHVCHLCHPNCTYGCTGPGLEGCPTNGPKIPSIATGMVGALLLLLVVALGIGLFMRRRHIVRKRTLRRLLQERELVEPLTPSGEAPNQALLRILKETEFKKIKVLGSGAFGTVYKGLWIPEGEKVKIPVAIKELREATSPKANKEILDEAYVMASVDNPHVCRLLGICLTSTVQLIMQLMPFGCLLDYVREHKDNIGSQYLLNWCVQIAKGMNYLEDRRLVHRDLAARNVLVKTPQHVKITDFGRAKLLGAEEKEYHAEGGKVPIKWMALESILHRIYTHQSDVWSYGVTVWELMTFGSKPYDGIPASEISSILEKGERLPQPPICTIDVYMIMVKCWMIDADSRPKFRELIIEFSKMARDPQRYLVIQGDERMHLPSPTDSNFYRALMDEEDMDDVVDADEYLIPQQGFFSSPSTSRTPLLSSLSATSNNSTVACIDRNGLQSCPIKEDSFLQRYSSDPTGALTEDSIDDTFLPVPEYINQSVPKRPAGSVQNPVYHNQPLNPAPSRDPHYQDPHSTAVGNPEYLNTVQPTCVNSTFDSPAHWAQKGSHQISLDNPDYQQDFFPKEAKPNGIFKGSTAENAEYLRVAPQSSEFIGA
T1 sequence (P00533 25-1210 T790M/L858R): as above

EC50 [1] [nM]	Ki (EGFR T790M L858R) [nM]	EC50 [2] [nM]	Structure (SMILES)
921	1.1	79.7	CCS(=O)(=O)n1cc(-c2nccc(Nc3cc4c(cn3)c(NC3COC3)nn4C(C)C)n2)cn1 [Example 16, N^6-(2-(1-(Ethylsulfonyl)-1H-pyrazol-4-yl)pyrimidin-4-yl)-1-isopropyl-N^3-(oxetan-3-yl)-1H-pyrazolo[4,3-c]pyridine-3,6-diamine]
498	35.6	3830	CC(C)n1ncc2cnc(Nc3ccnc(-c4cnn(CC5CC5)c4)n3)cc21 [Example 32, N-(2-(1-(cyclopropylmethyl)-1H-pyrazol-4-yl)pyrimidin-4-yl)-1-isopropyl-1H-pyrazolo[4,3-c]pyridin-6-amine]
162	1.3	9.4	CC(C)n1nc(N2CC[C@@H](CO)C2)c2cnc(Nc3ccnc(-c4cnn(S(=O)(=O)C5CC5)c4)n3)cc21 [Example 41, (R)-(1-(6-(2-(1-(cyclopropylsulfonyl)-1H-pyrazol-4-yl)pyrimidin-4-ylamino)-1-isopropyl-1H-pyrazolo[4,3-c]pyridin-3-yl)pyrrolidin-3-yl)methanol]
732	3	219	CC(C)n1nc(N2CC3(COC3)C2)c2cnc(Nc3ccnc(-c4cnn(CC5CC5)c4)n3)cc21 [Example 4, N-(2-(1-(Cyclopropylmethyl)-1H-pyrazol-4-yl)pyrimidin-4-yl)-1-isopropyl-3-(2-oxa-6-azaspiro[3.3]heptan-6-yl)-1H-pyrazolo[4,3-c]pyridin-6-amine]
3700	23.5	2380	CC(C)c1nn(C(C)C)c2cc(Nc3ccnc(-c4cnn(S(=O)(=O)C5CC5)c4)n3)ncc12 [Example 50, N-(2-(1-(cyclopropylsulfonyl)-1H-pyrazol-4-yl)pyrimidin-4-yl)-1,3-diisopropyl-1H-pyrazolo[4,3-c]pyridin-6-amine]
1410	2.6	111	CC(C)n1nc(N2CCOCC2)c2cnc(Nc3ccnc(N4CCC(O)C(C)(C)C4)n3)cc21 (stereo not drawn) [Example 34]
798	1.9	154	CC(C)n1nc(OC2CCOC2)c2cnc(Nc3ccnc(-c4cnn(S(=O)(=O)C5CC5)c4)n3)cc21 (stereo not drawn) [Example 29, N-(2-(1-(Cyclopropylsulfonyl)-1H-pyrazol-4-yl)pyrimidin-4-yl)-1-isopropyl-3-(tetrahydrofuran-3-yloxy)-1H-pyrazolo[4,3-c]pyridin-6-amine]
216	1	19.3	CCC(C)n1nc(N2CC3(COC3)C2)c2cnc(Nc3ccnc(-c4cnn(S(=O)(=O)C5CC5)c4)n3)cc21 (racemic) [Example 14, 1-(sec-Butyl)-N-(2-(1-(cyclopropylsulfonyl)-1H-pyrazol-4-yl)pyrimidin-4-yl)-3-(2-oxa-6-azaspiro[3.3]heptan-6-yl)-1H-pyrazolo[4,3-c]pyridin-6-amine]
1080	2.5	135	CC(C)n1nc(N2CCOCC2)c2cnc(Nc3ccnc(N4CCC(O)C(F)C4)n3)cc21 (racemic) [Example 20, (±)-cis-3-Fluoro-1-[4-(1-isopropyl-3-morpholin-4-yl-1H-pyrazolo[4,3-c]pyridin-6-ylamino)pyrimidin-2-yl]piperidin-4-ol]
945	0.7	98	CC(C)n1nc(N(C)CC(O)CO)c2cnc(Nc3ccnc(-c4cnn(S(=O)(=O)C5CC5)c4)n3)cc21 (stereo not drawn) [Example 49, 3-((6-(2-(1-(cyclopropylsulfonyl)-1H-pyrazol-4-yl)pyrimidin-4-ylamino)-1-isopropyl-1H-pyrazolo[4,3-c]pyridin-3-yl)(methyl)amino)propane-1,2-diol]
1840	5.2	382	CC(C)n1nc(N2CCOCC2)c2cnc(Nc3ccnc(-c4cnn(CC5CC5)c4)n3)cc21 [Example 9, N-(2-(1-(Cyclopropylmethyl)-1H-pyrazol-4-yl)pyrimidin-4-yl)-1-isopropyl-3-morpholino-1H-pyrazolo[4,3-c]pyridin-6-amine]
397	0.7	15.8	CCS(=O)(=O)n1cc(-c2nccc(Nc3cc4c(cn3)c(N3CC(CO)C3)nn4C(C)C)n2)cn1 [Example 36, (1-(6-(2-(1-(ethylsulfonyl)-1H-pyrazol-4-yl)pyrimidin-4-ylamino)-1-isopropyl-1H-pyrazolo[4,3-c]pyridin-3-yl)azetidin-3-yl)methanol]
775	1.1	84.8	CC(C)n1nc(N[C@@H]2CCOC2)c2cnc(Nc3ccnc(-c4cnn(S(=O)(=O)C5CC5)c4)n3)cc21 [Example 40, (R)-N6-(2-(1-(cyclopropylsulfonyl)-1H-pyrazol-4-yl)pyrimidin-4-yl)-1-isopropyl-N3-(tetrahydrofuran-3-yl)-1H-pyrazolo[4,3-c]pyridine-3,6-diamine]
421	1	29.6	CC(C)n1nc(N2CC3(COC3)C2)c2cnc(Nc3ccnc(-c4cnn(S(=O)(=O)C5CC5)c4)n3)cc21 [Example 5, N-(2-(1-(Cyclopropylsulfonyl)-1H-pyrazol-4-yl)pyrimidin-4-yl)-1-isopropyl-3-(2-oxa-6-azaspiro[3.3]heptan-6-yl)-1H-pyrazolo[4,3-c]pyridin-6-amine]
5440	0.6	1460	CC(C)n1nc(NCC(N)=O)c2cnc(Nc3ccnc(-c4cnn(S(=O)(=O)C5CC5)c4)n3)cc21 [Example 48, 2-(6-(2-(1-(cyclopropylsulfonyl)-1H-pyrazol-4-yl)pyrimidin-4-ylamino)-1-isopropyl-1H-pyrazolo[4,3-c]pyridin-3-ylamino)acetamide]
139	1.2	9.4	CC(C)n1nc(N2CC[C@H](CO)C2)c2cnc(Nc3ccnc(-c4cnn(S(=O)(=O)C5CC5)c4)n3)cc21 [Example 58, (S)-(1-(6-(2-(1-(cyclopropylsulfonyl)-1H-pyrazol-4-yl)pyrimidin-4-ylamino)-1-isopropyl-1H-pyrazolo[4,3-c]pyridin-3-yl)pyrrolidin-3-yl)methanol]
1200	1	68.9	CC(C)n1nc(NCC(C)(C)O)c2cnc(Nc3ccnc(-c4cnn(S(=O)(=O)C5CC5)c4)n3)cc21 [Example 61, 1-(6-(2-(1-(cyclopropylsulfonyl)-1H-pyrazol-4-yl)pyrimidin-4-ylamino)-1-isopropyl-1H-pyrazolo[4,3-c]pyridin-3-ylamino)-2-methylpropan-2-ol]
3590	12	458	CC(C)Oc1nn(C(C)C)c2cc(Nc3ccnc(-c4cnn(S(=O)(=O)C5CC5)c4)n3)ncc12 [Example 62, N-(2-(1-(cyclopropylsulfonyl)-1H-pyrazol-4-yl)pyrimidin-4-yl)-3-isopropoxy-1-isopropyl-1H-pyrazolo[4,3-c]pyridin-6-amine]
1460	4.9	723	CC(C)n1nc(C2CCOC2)c2cnc(Nc3ccnc(-c4cnn(S(=O)(=O)C5CC5)c4)n3)cc21 (stereo not drawn) [Example 19, N-(2-(1-(Cyclopropylsulfonyl)-1H-pyrazol-4-yl)pyrimidin-4-yl)-1-isopropyl-3-(tetrahydrofuran-3-yl)-1H-pyrazolo[4,3-c] pyridin-6-amine]
